Laboratory results published in patent US20150258059A1, “ANTIMICROBIAL AND RADIOPROTECTIVE COMPOUNDS” (BioDiem, Ltd, priority 2001, published 2015).
Read-outs that look alike come from different tables or passages of the source.

Assays:
Type in all cases: cell-based
[1] = tested on: Pseudomonas aeruginosa B-601; experiment: Sensitivity of strains: suppression of growth; settings: Compound (1) 1.0%; antibiotics disc method
Escherichia coli M-17 = experiment: Sensitivity of strains: suppression of growth; settings: Compound (1) 1.0%; antibiotics disc method
Escherichia coli B-683 = experiment: Sensitivity of strains: suppression of growth; settings: Compound (1) 1.0%; antibiotics disc method
Escherichia coli B-65 = experiment: Sensitivity of strains: suppression of growth; settings: Compound (1) 1.0%; antibiotics disc method
[2] = tested on: Enterobacter aerogenes B-679; experiment: Sensitivity of strains: suppression of growth; settings: Compound (1) 1.0%; antibiotics disc method
[3] = tested on: Enterobacter aerogenes B-687; experiment: Sensitivity of strains: suppression of growth; settings: Compound (1) 1.0%; antibiotics disc method
[4] = tested on: Citrobacter diversus B-678; experiment: Sensitivity of strains: suppression of growth; settings: Compound (1) 1.0%; antibiotics disc method
[5] = tested on: Shigella flexneri M-2A6907; experiment: Sensitivity of strains: suppression of growth; settings: Compound (1) 1.0%; antibiotics disc method
Shigella sonnei B-720 = experiment: Sensitivity of strains: suppression of growth; settings: Compound (1) 1.0%; antibiotics disc method
[6] = tested on: Salmonella typhimurium M-727; experiment: Sensitivity of strains: suppression of growth; settings: Compound (1) 1.0%; antibiotics disc method
[7] = tested on: Salmonella paratyphi M-16469; experiment: Sensitivity of strains: suppression of growth; settings: Compound (1) 1.0%; antibiotics disc method
Acinetobacter B-681 = experiment: Sensitivity of strains: suppression of growth; settings: Compound (1) 1.0%; antibiotics disc method
Acinetobacter B-676 = experiment: Sensitivity of strains: suppression of growth; settings: Compound (1) 1.0%; antibiotics disc method
Acinetobacter B-677 = experiment: Sensitivity of strains: suppression of growth; settings: Compound (1) 1.0%; antibiotics disc method
Alkaligenes sp. B-689 = experiment: Sensitivity of strains: suppression of growth; settings: Compound (1) 1.0%; antibiotics disc method
Alkaligenes sp. B-667 = experiment: Sensitivity of strains: suppression of growth; settings: Compound (1) 1.0%; antibiotics disc method
[8] = tested on: Yersinia pseudotuberculosis; settings: Compound (1) 1.0%; antibiotics disc method
[9] = tested on: Klebsiella pneumoniae M-A21; experiment: Sensitivity of strains: suppression of growth; settings: Compound (1) 1.0%; antibiotics disc method
[10] = tested on: Klebsiella pneumoniae M-248; experiment: Sensitivity of strains: suppression of growth; settings: Compound (1) 1.0%; antibiotics disc method
[11] = tested on: Corynebacterium diphtheriae B-670; experiment: Sensitivity of strains: suppression of growth; settings: Compound (1) 1.0%; antibiotics disc method
Bacillus sp. B-575 = experiment: Sensitivity of strains: suppression of growth; note: key: + sensitive strains; + moderately sensitive strains; − stable strains
[12] = tested on: Neisseria meningitidis M-6231; experiment: Sensitivity of strains: suppression of growth; settings: Compound (1) 1.0%; antibiotics disc method
[13] = tested on: Neisseria meningitidis M-A72; experiment: Sensitivity of strains: suppression of growth; settings: Compound (1) 1.0%; antibiotics disc method
[14] = tested on: Staphylococcus aureus M-12159; experiment: Sensitivity of strains: suppression of growth; settings: Compound (1) 1.0%; antibiotics disc method
[15] = tested on: Staphylococcus aureus M-209; experiment: Sensitivity of strains: suppression of growth; settings: Compound (1) 1.0%; antibiotics disc method
[16] = tested on: Staphylococcus aureus B-685; experiment: Sensitivity of strains: suppression of growth; settings: Compound (1) 1.0%; antibiotics disc method
[17] = tested on: Staphylococcus aureus B-674; experiment: Sensitivity of strains: suppression of growth; settings: Compound (1) 1.0%; antibiotics disc method
[18] = tested on: Staphylococci epidermidis D-513; experiment: Sensitivity of strains: suppression of growth; settings: Compound (1) 1.0%; antibiotics disc method
[19] = tested on: Staphylococcus epidermidis BK-30; experiment: Sensitivity of strains: suppression of growth; settings: Compound (1) 1.0%; antibiotics disc method
[20] = tested on: γ-hemolytic streptococcus B-672; experiment: Sensitivity of strains: suppression of growth; settings: Compound (1) 1.0%; antibiotics disc method
[21] = tested on: β-hemolytic streptococcus B-624; experiment: Sensitivity of strains: suppression of growth; settings: Compound (1) 1.0%; antibiotics disc method
[22] = tested on: Staphylococcus aureus ATCC 29213; experiment: NCCLS broth microdilution MIC/MBC
Proteus vulgaris RMIT = experiment: NCCLS broth microdilution MIC/MBC
[23] = tested on: Escherichia coli ATCC 25922; experiment: NCCLS broth microdilution MIC/MBC
[24] = tested on: Pseudomonas aeruginosa ATCC 27853; experiment: NCCLS broth microdilution MIC/MBC
Serratia marcescens RMIT = experiment: NCCLS broth microdilution MIC/MBC
[25] = tested on: Conditional pathogenic enterobacteria gram-negative aerobic bacilli; note: key: + sensitive strains; + moderately sensitive strains; − stable strains

| Compound | Suppression of Growth (+/−) [1] | Suppression of Growth (+/−) (Escherichia coli M-17) | Suppression of Growth (+/−) (Escherichia coli B-683) | Suppression of Growth (+/−) (Escherichia coli B-65) | Suppression of Growth (+/−) [2] | Suppression of Growth (+/−) [3] | Suppression of Growth (+/−) [4] | Suppression of Growth (+/−) [5] | Suppression of Growth (+/−) (Shigella sonnei B-720) | Suppression of Growth (+/−) [6] | Suppression of Growth (+/−) [7] | Suppression of Growth (+/−) (Acinetobacter B-681) | Suppression of Growth (+/−) (Acinetobacter B-676) | Suppression of Growth (+/−) (Alkaligenes sp. B-689) | Suppression of Growth (+/−) (Alkaligenes sp. B-667) | Suppression of Growth (+/−) [8] | Suppression of Growth (+/−) [9] | Suppression of Growth (+/−) [10] | Suppression of Growth (+/−) [11] | Suppression of Growth (+/−) [12] | also measured |
| --- | --- | --- | --- | --- | --- | --- | --- | --- | --- | --- | --- | --- | --- | --- | --- | --- | --- | --- | --- | --- | --- |
| Cc1onc(-c2ccccc2)c1C(=O)N[C@@H]1C(=O)N2[C@@H]1SC(C)(C)[C@@H]2C(=O)O [Antibiotic 8, oxacillin] | − | − | − | − | − | − | − | − | − | − | − | − | − | − | − | − | − | − | − | − | Suppression of Growth (+/−) (Acinetobacter B-677): −; Suppression of Growth (+/−) (Bacillus sp. B-575): −; Suppression of Growth (+/−) [13]: −; Suppression of Growth (+/−) [14]: +; Suppression of Growth (+/−) [15]: −; Suppression of Growth (+/−) [16]: +; Suppression of Growth (+/−) [17]: −; Suppression of Growth (+/−) [18]: +; Suppression of Growth (+/−) [19]: +; Suppression of Growth (+/−) [20]: −; Suppression of Growth (+/−) [21]: − |
| ristomycin [Antibiotic 11] | − | − | − | + | − | − | − | − | − | − | − | − | − | − | − | − | − | − | + | − | Suppression of Growth (+/−) [13]: −; Suppression of Growth (+/−) [14]: +; Suppression of Growth (+/−) [15]: +; Suppression of Growth (+/−) [16]: +; Suppression of Growth (+/−) [17]: −; Suppression of Growth (+/−) [18]: +; Suppression of Growth (+/−) [19]: +; Suppression of Growth (+/−) [20]: +; Suppression of Growth (+/−) [21]: + |
| CCCCCCCCCCCCCCCC[N+](C)(C)C.[Br-] [CTAB, cetyl trimethyl ammonium bromide] |  |  |  |  |  |  |  |  |  |  |  |  |  |  |  |  |  |  |  |  | MIC ([22]; Staphylococcus aureus, ATCC29213): 16 µg/mL; MMC ([22]; Table 17, 2 or 3 replicates): 32 µg/mL; MIC (Proteus vulgaris RMIT; Proteus vulgaris): 128 µg/mL; MMC (Proteus vulgaris RMIT; Table 17, 2 or 3 replicates): 256 µg/mL; MIC ([23]; Escherichia coli, ATCC25922): 16 µg/mL; MMC ([23]; Table 17, 2 or 3 replicates): 16 µg/mL; MIC ([24]; Pseudomonas aeruginosa, ATCC27853): 512 µg/mL; MMC ([24]; Table 17, 2 or 3 replicates): >512 µg/mL; MIC (Serratia marcescens RMIT; Serratia marcescens): 128 µg/mL; MMC (Serratia marcescens RMIT; Table 17, 2 or 3 replicates): 128 µg/mL |
| gentamycin [Antibiotic 3] | + | + | + | + | − | − | + | + | − | − | − | − | − | + | − | − | − | − | + | − | Suppression of Growth (+/−) [25]: −; Suppression of Growth (+/−) (Acinetobacter B-677): −; Suppression of Growth (+/−) [13]: −; Suppression of Growth (+/−) [14]: +; Suppression of Growth (+/−) [15]: +; Suppression of Growth (+/−) [16]: +; Suppression of Growth (+/−) [17]: +; Suppression of Growth (+/−) [18]: +; Suppression of Growth (+/−) [19]: −; Suppression of Growth (+/−) [20]: −; Suppression of Growth (+/−) [21]: − |
| CC[C@H]1OC(=O)[C@H](C)[C@@H](O[C@H]2C[C@@](C)(OC)[C@@H](O)[C@H](C)O2)[C@H](C)[C@@H](O[C@@H]2O[C@H](C)C[C@H](N(C)C)[C@H]2O)[C@](C)(O)C[C@@H](C)C(=O)[C@H](C)[C@@H](O)[C@]1(C)O [Antibiotic 14, erythromycin] | + | + | + | + | − | − | − | − | − | − | − | − | − | − | − | − | − | − | + | − | Suppression of Growth (+/−) [25]: −; Suppression of Growth (+/−) (Acinetobacter B-677): −; Suppression of Growth (+/−) [13]: −; Suppression of Growth (+/−) [14]: −; Suppression of Growth (+/−) [15]: −; Suppression of Growth (+/−) [16]: −; Suppression of Growth (+/−) [17]: +; Suppression of Growth (+/−) [18]: −; Suppression of Growth (+/−) [19]: −; Suppression of Growth (+/−) [20]: −; Suppression of Growth (+/−) [21]: − |
| CCC[C@@H]1C[C@@H](C(=O)N[C@@H]([C@H]2O[C@H](SC)[C@H](O)[C@@H](O)[C@H]2O)[C@@H](C)O)N(C)C1 [Antibiotic 6, lincomycin] | − | − | − | + | − | − | − | − | − | − | − | − | − | − | − | − | − | − | − | − | Suppression of Growth (+/−) [25]: −; Suppression of Growth (+/−) (Acinetobacter B-677): −; Suppression of Growth (+/−) (Bacillus sp. B-575; Compound (1) 1.0%, antibiotics disc method): +; Suppression of Growth (+/−) [13]: −; Suppression of Growth (+/−) [14]: −; Suppression of Growth (+/−) [15]: −; Suppression of Growth (+/−) [16]: −; Suppression of Growth (+/−) [17]: −; Suppression of Growth (+/−) [18]: +; Suppression of Growth (+/−) [19]: −; Suppression of Growth (+/−) [20]: −; Suppression of Growth (+/−) [21]: − |
